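GI50: concentration for 50% inhibition of growth. At the TGI there is no net growth.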
Legend:
Assay in all cases: growth of human tumour cells (NCI), 384-well format
MCF7 breast = system: MCF7 breast
SF-295 CNS = system: SF-295 CNS
MDA-MB-435 melanoma = system: MDA-MB-435 melanoma
SW-620 colon = system: SW-620 colon
PC-3 prostate = system: PC-3 prostate
M14 melanoma = system: M14 melanoma
UO-31 renal = system: UO-31 renal
A549 NSCLC = system: A549 NSCLC
UACC-257 melanoma = system: UACC-257 melanoma
UACC-62 melanoma = system: UACC-62 melanoma
HOP-92 NSCLC = system: HOP-92 NSCLC
SNB-75 CNS = system: SNB-75 CNS
HCT-116 colon = system: HCT-116 colon
MDA-MB-468 breast = system: MDA-MB-468 breast
BT-549 breast = system: BT-549 breast
ACHN renal = system: ACHN renal
786-0 renal = system: 786-0 renal
OVCAR-8 ovarian = system: OVCAR-8 ovarian
HL-60(TB) leukemia = system: HL-60(TB) leukemia
SF-268 CNS = system: SF-268 CNS
U251 glioblastoma = system: U251 glioblastoma
NCI-H23 lung = system: NCI-H23 lung
RPMI-8226 leukemia = system: RPMI-8226 leukemia
SK-OV-3 ovarian = system: SK-OV-3 ovarian
MOLT-4 leukemia = system: MOLT-4 leukemia
COLO 205 colon = system: COLO 205 colon
NCI-H460 NSCLC = system: NCI-H460 NSCLC
CCRF-CEM leukemia = system: CCRF-CEM leukemia
IGROV1 ovarian = system: IGROV1 ovarian
SN12C renal = system: SN12C renal
HS 578T breast = system: HS 578T breast
RXF 393 renal = system: RXF 393 renal
HT29 colon = system: HT29 colon
K-562 leukemia = system: K-562 leukemia
SF-539 CNS = system: SF-539 CNS
OVCAR-3 ovarian = system: OVCAR-3 ovarian
NCI-H522 lung = system: NCI-H522 lung
NCI-H226 lung = system: NCI-H226 lung
HCT-15 colon = system: HCT-15 colon
SK-MEL-5 melanoma = system: SK-MEL-5 melanoma
NCI/ADR-RES ovarian = system: NCI/ADR-RES ovarian
SR leukemia = system: SR leukemia
HOP-62 NSCLC = system: HOP-62 NSCLC
HCC-2998 colon = system: HCC-2998 colon
SNB-19 CNS = system: SNB-19 CNS
A498 renal = system: A498 renal
OVCAR-4 ovarian = system: OVCAR-4 ovarian
CAKI-1 renal = system: CAKI-1 renal
DU-145 prostate = system: DU-145 prostate
EKVX NSCLC = system: EKVX NSCLC
MDA-MB-231 breast = system: MDA-MB-231 breast
MALME-3M melanoma = system: MALME-3M melanoma
T-47D breast = system: T-47D breast
NCI-H322M lung = system: NCI-H322M lung
LOX IMVI melanoma = system: LOX IMVI melanoma
TK-10 renal = system: TK-10 renal
KM12 colon = system: KM12 colon
SK-MEL-28 melanoma = system: SK-MEL-28 melanoma

What does the source list for `CC(C)c1c(-c2ccccc2)nc2c(C#N)c[nH]n2c1=O`?
GI50 (MCF7 breast): 20.9 µM; TGI (MCF7 breast): 54.7 µM; GI50 (SF-295 CNS): 22.9 µM; TGI (SF-295 CNS): 62.4 µM; GI50 (MDA-MB-435 melanoma): 39.9 µM; TGI (MDA-MB-435 melanoma): > 100 µM; GI50 (SW-620 colon): 38.8 µM; TGI (SW-620 colon): > 100 µM; GI50 (PC-3 prostate): 37.2 µM; TGI (PC-3 prostate): > 100 µM; GI50 (M14 melanoma): 30.7 µM; TGI (M14 melanoma): 96.8 µM; GI50 (UO-31 renal): 38.9 µM; TGI (UO-31 renal): > 100 µM; GI50 (A549 NSCLC): 33.1 µM; TGI (A549 NSCLC): > 100 µM; GI50 (UACC-257 melanoma): 22.3 µM; TGI (UACC-257 melanoma): 46.3 µM; GI50 (UACC-62 melanoma): 24.2 µM; TGI (UACC-62 melanoma): 66.7 µM; GI50 (HOP-92 NSCLC): 30.5 µM; TGI (HOP-92 NSCLC): 89 µM; GI50 (SNB-75 CNS): 35.2 µM; TGI (SNB-75 CNS): > 100 µM; GI50 (HCT-116 colon): 34.5 µM; TGI (HCT-116 colon): > 100 µM; GI50 (MDA-MB-468 breast): 19.6 µM; TGI (MDA-MB-468 breast): 37.2 µM; GI50 (BT-549 breast): 39.9 µM; TGI (BT-549 breast): > 100 µM; GI50 (ACHN renal): 38.3 µM; TGI (ACHN renal): > 100 µM; GI50 ([…]-0 renal): 33.6 µM; TGI (786-0 renal): > 100 µM; GI50 (OVCAR-8 ovarian): 37.6 µM; TGI (OVCAR-8 ovarian): > 100 µM; GI50 (HL-60(TB) leukemia): 12.2 µM; TGI (HL-60(TB) leukemia): 25.7 µM; GI50 (SF-268 CNS): 36.6 µM; TGI (SF-268 CNS): > 100 µM; GI50 (U251 glioblastoma): 34.4 µM; TGI (U251 glioblastoma): > 100 µM; GI50 (NCI-H23 lung): 20.3 µM; TGI (NCI-H23 lung): 44.5 µM; GI50 (RPMI-8226 leukemia): 21.1 µM; TGI (RPMI-8226 leukemia): 37.9 µM; GI50 (SK-OV-3 ovarian): 36.8 µM; TGI (SK-OV-3 ovarian): > 100 µM; GI50 (MOLT-4 leukemia): 16.2 µM; TGI (MOLT-4 leukemia): 29.9 µM; GI50 (COLO 205 colon): 24.1 µM; TGI (COLO 205 colon): 47.9 µM; GI50 (NCI-H460 NSCLC): 27.4 µM; TGI (NCI-H460 NSCLC): 65.3 µM; GI50 (CCRF-CEM leukemia): 20.8 µM; TGI (CCRF-CEM leukemia): 42.4 µM; GI50 (IGROV1 ovarian): 44 µM; TGI (IGROV1 ovarian): > 100 µM; GI50 (SN12C renal): 20.3 µM; TGI (SN12C renal): 41.9 µM; GI50 (HS 578T breast): 37.7 µM; TGI (HS 578T breast): > 100 µM; GI50 (RXF 393 renal): 28.6 µM; TGI (RXF 393 renal): > 100 µM; GI50 (HT29 colon): 38 µM; TGI (HT29 colon): > 100 µM; GI50 (K-562 leukemia): 37.7 µM; TGI (K-562 leukemia): > 100 µM; GI50 (SF-539 CNS): 34.2 µM; TGI (SF-539 CNS): > 100 µM; GI50 (OVCAR-3 ovarian): 18 µM; TGI (OVCAR-3 ovarian): 36.3 µM; GI50 (NCI-H522 lung): 19 µM; TGI (NCI-H522 lung): 37.6 µM; GI50 (NCI-H226 lung): 27 µM; TGI (NCI-H226 lung): 70.9 µM; GI50 (HCT-15 colon): 38.8 µM; TGI (HCT-15 colon): > 100 µM; GI50 (SK-MEL-5 melanoma): 19.4 µM; TGI (SK-MEL-5 melanoma): 35.6 µM; GI50 (NCI/ADR-RES ovarian): 27.5 µM; TGI (NCI/ADR-RES ovarian): 69.5 µM; GI50 (SR leukemia): 25.2 µM; TGI (SR leukemia): 41.2 µM; GI50 (HOP-62 NSCLC): 24.9 µM; TGI (HOP-62 NSCLC): 65.9 µM; GI50 (HCC-2998 colon): 44.9 µM; TGI (HCC-2998 colon): > 100 µM; GI50 (SNB-19 CNS): 43.6 µM; TGI (SNB-19 CNS): > 100 µM; GI50 (A498 renal): 40.2 µM; TGI (A498 renal): > 100 µM; GI50 (OVCAR-4 ovarian): 25.9 µM; TGI (OVCAR-4 ovarian): 74.2 µM; GI50 (CAKI-1 renal): 44.8 µM; TGI (CAKI-1 renal): > 100 µM; GI50 (DU-145 prostate): 31.9 µM; TGI (DU-145 prostate): > 100 µM; GI50 (EKVX NSCLC): 22.4 µM; TGI (EKVX NSCLC): 46.4 µM; GI50 (MDA-MB-231 breast): 24.2 µM; TGI (MDA-MB-231 breast): 53.5 µM; GI50 (MALME-3M melanoma): 17.6 µM; TGI (MALME-3M melanoma): 36.1 µM; GI50 (T-47D breast): 21 µM; TGI (T-47D breast): 42.9 µM; GI50 (NCI-H322M lung): 33.6 µM; TGI (NCI-H322M lung): > 100 µM; GI50 (LOX IMVI melanoma): 21.1 µM; TGI (LOX IMVI melanoma): 41.9 µM; GI50 (TK-10 renal): 34.1 µM; TGI (TK-10 renal): > 100 µM; GI50 (KM12 colon): 30.8 µM; TGI (KM12 colon): > 100 µM; GI50 (SK-MEL-28 melanoma): 28.5 µM; TGI (SK-MEL-28 melanoma): 96.8 µM

Reference: PubChem BioAssay (NCI)
